Legend:
Mastocytoma P-815 = assay: Ascites tumor (Mastocytoma P-815) inhibition in BDF1 mice; format: in vivo; conditions: 0.5 mg/mouse/day × 6, intraperitoneal
Method: Mice of BDF1 species (5 week old male, suppliers: Charles River and Shizuoka Laboratory Animal Center) were divided into four groups each containing three to six. Cancerized mast cells (Mastocytoma P-815) were implanted into the ascites of a mouse in an amount of 1×10^6 cells/mouse. From the next day, drug
A: N-(2-ethylhexyl)-crotonamide,
B: N-(2-ethylhexyl)-beta-methylcrotonamide, or
C: N-(2-ethylhexyl)-beta-hydroxybutyramide
was administered once a day by intra-peritoneal injection in an amount of 0.5 mg/mouse/day for 6 days, respectively. After 18 hours from the last administration, the mice were killed with ether for anesthesia. The entire ascitic cells were taken out with about 20 ml of phosphate buffered saline. Using the nigrosine staining method (0.01% nigrosine in Earl's balanced salt solution), the number of cells, particularly, live cells were counted by means of a Thomas leucocyte counting apparatus.
For the above-described administration procedure was used 50 mg of the drug to which 25 mg of polyoxyethylene sorbitan monooleate (Tween 80) was added and the mixture was suspended in 5 ml of physiological salt solution and sterilized in an autoclave at 120° C. under 2 atm. for 15 minutes. The resulting sterile suspension was ready for administration.
**Tumor inhibition ratio was calculated in terms of the following
C : number of ascites cancer cells in the control group
N : number of ascites cancer cells in the treated group

[1] = tested on: DNA synthesis in cancerized mast cells (Mastocytoma P-815); assay: 3H-TdR incorporation into DNA of cancerized mast cells; format: cell-based, mouse; conditions: for inhibition at 100 µg/mL / inhibition at 500 µg/mL: Mus musculus, P815, 1.25 h, read-out: DNA synthesis inhibition ratio
Method: Effects of drugs on ^3 H-TdR (tritium labelled thymidine) incorporation into DNA of cancerized mast cells were examined.
Cancerized mast cells (Mastocytoma P-815), 4.25×10^6 cells, were incubated for 15 minutes with or without each of drugs, A: (N-(2-ethylhexyl)-crotonamide), B: (N-(2-ethylhexyl)-β-methylcrotonamide) and C: (N-(2-ethylhexyl)-β-hydroxybutyramide) (each 100 μg and 500 μg) in 1 cc of Fischer culture medium. Thereafter, 0.1 μCi of ^3 H-TdR was added and incubation was proceeded for an additional 60 minutes. The cells were washed with PBS and the DNA was precipitated with 5% (W/V) trichloroacetic acid. Precipitates were counted in a liquid Scintillation Spectrometer.
*Inhibition ratio was calculated in terms of the following equation: […]
c : amount of ^3 H--TdR incorporated in the control group (cpm)
s : amount of ^3 H--TdR incorporated in the treated group (cpm)

Acute toxicity test = conditions: in vivo, ip; ICR male mouse, intraperitoneal
[2] = tested on: cancerized mast cells (Mastocytoma P-815); assay: Inhibition of growth of cancerized mast cells (Mastocytoma P-815) during 20 hours of cultivation; format: cell-based, mouse; conditions: 20 hour cultivation, 37° C., FIG. 5
Method: 20 ml of a culture medium containing cancerized mast cells of a mouse (Mastocytoma P-815) at an inoculum cell concentration of 1.6×10^5 cells/ml in Fischer and Sartorelli's medium supplemented with 5% fetal calf serium were cultured in a 120 ml Erlenmeyer flask with or without drugs to be tested in an atmosphere of 5% CO2 and 95% air at 37° C. for 20 hours in a humidified incubator. Drugs, N-(2-ethylhexyl)-crotonamide, N-(2-ethylhexyl)-β-methylcrotonamide or N-(2-ethylhexyl)-β-hydroxybutyramide were added in different amounts to the initial culture medium. No drug was added to a control solution. After cultivation, the number of cells was counted.
The results are shown in FIG. 5 wherein A corresponds to N-(2-ethylhexyl)-crotonamide, B corresponds to N-(2-ethylhexyl)-beta-methylcrotonamide, C corresponds to N-(2-ethylhexyl)-beta-hydroxybutyramide, D is the inoculum cell number, and E corresponds to the control. A, B, C and E are the cell numbers after 20 hour cultivation as described above.

Solubility = format: physicochemical; conditions: for solubility in organic solvents: organic solvents such as acetone
cancerous cells = assay: Carcinostatic activity (overall statement)
[3] = Shizuoka Laboratory Animal Center BDF1 mice

CCCCC(CC)CNC(=O)CC(C)O (stereo not drawn) [Drug C, N-(2-ethylhexyl)-β-hydroxybutyramide, reference compound]
Number of ascites cancer cells (Mastocytoma P-815; Charles River BDF1 mice): 6.0 ×10^8 /mouse
Tumor inhibition ratio (Mastocytoma P-815; Charles River BDF1 mice): 63.4%
Number of ascites cancer cells (Mastocytoma P-815; [3]): 6.7 ×10^8 /mouse
Tumor inhibition ratio (Mastocytoma P-815; [3]): 30.9%
3H-TdR incorporated (cpm) ([1]; 100 μg in 1 cc medium): 2205 cpm
3H-TdR incorporated (cpm) ([1]; 500 μg in 1 cc medium): 1200 cpm
inhibition at 100 µg/mL ([1]; 100 μg in 1 cc medium): 45.6%
inhibition at 500 µg/mL ([1]; 500 μg in 1 cc medium): 70.4%

CCCCC(CC)CNC(=O)C=C(C)C (stereo not drawn) [Drug B, N-(2-ethylhexyl)-β-methylcrotonamide]
LD50 (Acute toxicity test): 1400 mg/kg
inhibition of division and growth of cancerized mast cells [2]: more effective than N-(2-ethylhexyl)-β-hydroxybutyramide
Number of ascites cancer cells (Mastocytoma P-815; Charles River BDF1 mice): 9.5 ×10^8 /mouse
Tumor inhibition ratio (Mastocytoma P-815; Charles River BDF1 mice): 42.1%
Number of ascites cancer cells (Mastocytoma P-815; [3]): 4.0 ×10^8 /mouse
Tumor inhibition ratio (Mastocytoma P-815; [3]): 58.8%
inhibition of DNA synthesis (in words) [1]: effective in inhibiting DNA synthesis
3H-TdR incorporated (cpm) ([1]; 100 μg in 1 cc medium): 200 cpm
3H-TdR incorporated (cpm) ([1]; 500 μg in 1 cc medium): 0 cpm
inhibition at 100 µg/mL ([1]; 100 μg in 1 cc medium): 95.1%
inhibition at 500 µg/mL ([1]; 500 μg in 1 cc medium): 100%
solubility in organic solvents (Solubility): soluble in organic solvents such as acetone
solubility in water (Solubility): insoluble in water
carcinostatic activity (cancerous cells): high carcinostatic activity

C/C=C/C(=O)NCC(CC)CCCC (stereo not drawn) [Drug A, N-(2-ethylhexyl)-crotonamide]
LD50 (Acute toxicity test): 540 mg/kg
inhibition of division and growth of cancerized mast cells [2]: more effective than N-(2-ethylhexyl)-β-hydroxybutyramide
Number of ascites cancer cells (Mastocytoma P-815; Charles River BDF1 mice): 1.5 ×10^8 /mouse
Tumor inhibition ratio (Mastocytoma P-815; Charles River BDF1 mice): 90.9%
Number of ascites cancer cells (Mastocytoma P-815; [3]): 1.2 ×10^8 /mouse
Tumor inhibition ratio (Mastocytoma P-815; [3]): 87.6%
inhibition of DNA synthesis (in words) [1]: effective in inhibiting DNA synthesis
3H-TdR incorporated (cpm) ([1]; 100 μg in 1 cc medium): 400 cpm
3H-TdR incorporated (cpm) ([1]; 500 μg in 1 cc medium): 75 cpm
inhibition at 100 µg/mL ([1]; 100 μg in 1 cc medium): 90.1%
inhibition at 500 µg/mL ([1]; 500 μg in 1 cc medium): 98.1%
solubility in organic solvents (Solubility): soluble in organic solvents such as acetone
solubility in water (Solubility): insoluble in water
carcinostatic activity (cancerous cells): high carcinostatic activity
